Measured values published in article PMC4389225, “Triaminopyrimidine is a fast-killing and long-acting antimalarial clinical candidate” (Nature Communications, 2015).
Where two headings read alike, the source gives them in different places.

Legend:
[1] = 3-day rat tolerability study of compound 2; format: in vivo
Protocol: Protein binding (human free) […]
μM Cmax (total). Consequently, compound 2 was classified as having no therapeutic window preclinically in this model.
Rat 3 Day Toxicology Study: Male Han Wister rats (n=4) received compound 2 at dose levels of 100 or 300 mg/kg for three days (AstraZeneca, Waltham, USA).
One animal was found dead, and one considered moribund on the morning of Day 4, before

[2] = Dog plasma PK, IV and oral; format: in vivo; details: male, Beagle; for clearance / AUC(0-inf) / AUC(0-t) / Cmax / MRT / half-life / Vd / bioavailability: dog; for half-life: read-out: t½ (converted); for Vd: read-out: Vss
Protocol: Pharmacokinetic studies to estimate the blood levels of compounds in dogs. PK in fasted, male Beagle dogs (n = 2 per dose) was studied after a single dose administered by intravenous infusion for 15 min (IV) or by an oral route (PO). Solution formulation containing 10% ethanol, 30% PEG 400, 60% saline was used for IV administration and a suspension in 0.5% w/v HPMC with 0.1% v/v Tween 80 was used for oral administration.
48 hours after an oral dose of 5 mg/kg. Blood samples were centrifuged and plasma samples were analyzed by LC/MS/MS. Dog PK profiles are shown in supplementary Fig. 11 and PK parameters are described in supplementary Table 9.

Dd2 = assay: [3H]-hypoxanthine incorporation assay, Dd2; format: cell-based, Plasmodium falciparum; details: Plasmodium falciparum, DD2
Protocol: 9 and 12 were tested for their antiplasmodial activity against a panel of Pf strains known to harbour mutations conferring resistance to novel agents under clinical development. Parasite growth inhibition is measured using the [3H]-hypoxanthine incorporation assay. IC50s are established for each strain (n ≥2) and compared to the IC50 of Dd2 (standard pan-resistant

Dd2 PfATP4 NITD609 = assay: [3H]-hypoxanthine incorporation assay, Dd2 PfATP4 NITD609 resistant; format: cell-based; details: Plasmodium falciparum
Protocol: (§1) Supplementary Table 3: Compound 9 and 12 retain their activity against Pf strains harbouring mutations to novel antimalarial agents in clinical development. Compound 9 and 12 were tested for their antiplasmodial activity against a panel of Pf strains known to harbour mutations conferring resistance to novel agents under clinical development. Parasite growth inhibition is measured using the [3H]-hypoxanthine incorporation assay. IC50s are established for each strain (n ≥2) and compared to the IC50 of Dd2 (standard pan-resistant […]

Cpd 4 Unpublished Target = assay: [3H]-hypoxanthine incorporation assay, Cpd 4 Unpublished Target resistant; format: cell-based; details: Plasmodium falciparum
Protocol: as §1

Hepatocyte Clint, dog = format: in vitro ADME; details: for Predicted blood CL: Dog
Source text: (§2) Supplementary Note 5: Prediction of human clearance for compound 12 by IVIVE.
(§3) Human clearance (CL) was predicted by in vitro-in vivo extrapolation (IVIVE) from the in vitro Clint in human hepatocytes6. In vitro Clint was scaled to in vivo Clint as follows:
(§4) Clint in vivo = Clint in vitro * scaling factors * fublood/fuinc
(§5) The liver weights used for scaling were 40, 32 and 24 g/kg body weight in rat, dog and human respectively. Hepatocellularity used for scaling was 163, 169 and 120 (X 106) cells/g liver in rat, dog and human respectively. Free fraction in blood was calculated as fuplasma /Blood:Plasma (BP) ratio. BP ratio and free fraction in the hepatocyte incubation mix, fuinc, were measured in vitro. Slope and intercept from the linear regression analysis of IVIVC for a large number of AstraZeneca compounds was applied for final correction in the scaled in vivo Clint. A well stirred model was used for CL prediction.
(§6) Where Qh is the liver blood flow. The values of Qh in rat, dog and human are 72, 55 and 20 mL.min-1kg-1 in rat, dog and human, respectively. In vitro parameters, observed in vivo CL and predicted CL are shown in supplementary Table 10. […]
(§7) (also on this page, place not known: in vivo in vivo CLintQ CLintQCL Predicted predicted predicted h h + ×=)
(§8) (1 picture or pasted object on this page, not shown here)

Blood-plasma ratio, rat = format: in vitro ADME
Source text: as §2, §3, §4, §5, §6, §7, §8

[3] = Blood-plasma ratio, human; format: in vitro ADME
Source text: as §2, §3, §4, §5, §6, §7, §8

[4] = Plasma protein binding, dog
[5] = tested on: Pf male and female gametes; assay: Pf male and female dual gamete assay; details: Plasmodium falciparum, read-out: inhibition in Pf male and female dual gamete assay
Dd2-6R F4 G7 = assay: SYBR green growth assay, Dd2-6R F4 G7; details: Plasmodium falciparum
[6] = plasma, iv, 2.1 mg/kg, IV 2.1 mg kg-1, Dog 1
[7] = plasma, iv, 2.1 mg/kg, IV 2.1 mg kg-1, Dog 2
[8] = plasma, iv, 2.1 mg/kg, IV 2.1 mg kg-1, Mean
[9] = plasma, po, 5.1 mg/kg, Oral 5.1 mg kg-1, Dog 1
[10] = plasma, po, 5.1 mg/kg, Oral 5.1 mg kg-1, Dog 2
[11] = plasma, po, 5.1 mg/kg, Oral 5.1 mg kg-1, Mean

## Cc1cc(Nc2ncc(N3CCN(C)CC3)c(N3CCCC3)n2)ccn1 [compound 2]
[1]; 100 mg/kg oral
  A - Plasma Cmax Total: 8130 nM
  Safety Margin (A / B): None
  Summary of clinical signs and effects: Non-specific toxicity
[1]; 300 mg/kg oral
  A - Plasma Cmax Total: 19180 nM
  Safety Margin (A / B): None
  Summary of clinical signs and effects: Premature decedents

## Cc1nc(Nc2ncc(N3CCN(C)[C@H](C)C3)c(Nc3cc(C)n(C)n3)n2)cc(C2CC2)c1F [compound 12, (R)-N2-(4-cyclopropyl-5-fluoro-6-methylpyridin-2-yl)-N4-(1,5-dimethyl-1H-pyrazol-3-yl)-5-(3,4-dimethylpiperazin-1-yl)pyrimidine-2,4-diamine]
[2]; blood, iv, 2.1 mg kg-1, Dog, read-out: Observed blood CL
  clearance: 19 mL/min/kg
[2]; [6]
  AUC(0-inf): 2.72 µM·h
  AUC(0-t): 2.16 µM·h
  Cmax: 641 nM
  MRT: 15.1 h
  half-life: 11 h
[2]; [7]
  AUC(0-inf): 3.47 µM·h
  AUC(0-t): 2.68 µM·h
  Cmax: 515 nM
  MRT: 15.9 h
  half-life: 11 h
[2]; [8]
  AUC(0-inf): 3.1 µM·h
  AUC(0-t): 2.42 µM·h
  Cmax: 578 nM
  MRT: 15.5 h
  half-life: 11 h
[2]; plasma, iv, 2.1 mg/kg, plasma, IV 2.1 mg kg-1, Dog 1, read-out: CL
  clearance: 27.5 mL/min/kg
[2]; plasma, iv, 2.1 mg/kg, plasma, IV 2.1 mg kg-1, Dog 1
  Vd: 24.9 L/kg
[2]; plasma, iv, 2.1 mg/kg, plasma, IV 2.1 mg kg-1, Dog 2, read-out: CL
  clearance: 21.3 mL/min/kg
[2]; plasma, iv, 2.1 mg/kg, plasma, IV 2.1 mg kg-1, Dog 2
  Vd: 20.4 L/kg
[2]; plasma, iv, 2.1 mg/kg, plasma, IV 2.1 mg kg-1, Mean, read-out: CL
  clearance: 24.4 mL/min/kg
[2]; plasma, iv, 2.1 mg/kg, plasma, IV 2.1 mg kg-1, Mean
  Vd: 22.7 L/kg
[2]; [9]
  AUC(0-inf): 5.87 µM·h
  AUC(0-t): 5.27 µM·h
  Cmax: 300 nM
  bioavailability: 88.1%
  half-life: 15.2 h
[2]; [10]
  AUC(0-inf): 8.28 µM·h
  AUC(0-t): 7.48 µM·h
  Cmax: 603 nM
  bioavailability: 96.4%
  half-life: 17 h
[2]; [11]
  AUC(0-inf): 7.08 µM·h
  AUC(0-t): 6.38 µM·h
  Cmax: 452 nM
  bioavailability: 92.3%
  half-life: 16.1 h
[2]; plasma, Oral 5.1 mg kg-1, Dog 1
  Tmax: 2 h
Dd2
  IC50: 3.5 nM
Dd2 PfATP4 NITD609
  IC50: 6.8 nM
Cpd 4 Unpublished Target
  IC50: 8.2 nM
Hepatocyte Clint, dog
  Predicted blood CL: 38 % LBF
Hepatocyte Clint, dog; IVIVC from hepatocyte Clint
  Predicted blood CL: 20.8 mL/min/kg
Hepatocyte Clint, dog; dog, hepatocytes
  hepatocyte CLint: 9.3 µL/min/1e6 cells
Blood-plasma ratio, rat
  B:P ratio: 1.65
[3]
  B:P ratio: 1.3
Observed blood CL, mouse; Mouse
  Observed blood CL: 32-35 % LBF
Observed blood CL, mouse; mouse, blood
  clearance: 48 to 53 mL/min/kg
[4]; Dog
  Plasma protein binding (% free): 3.8 % free
[4]; dog, plasma
  fraction unbound: 0.038
[5]
  inhibition at 1 µM: 16.5 ± 6.3%
Dd2-6R F4 G7
  IC50: 90.7 nM
